Source: patent US20010025053A1, “Use of nitric oxid synthase inhibitors for the treatment of diabetes” (Smith Kline Beecham p.l.c., priority 1997, published 2001)

Tested on: obese db/db mouse
Assay: obese db/db mouse model of type 2 non-insulin dependent diabetes
Type: in vivo
Conditions: obese db/db mice
From the text: The obese db/db mouse is a genetic model of type 2 non-insulin dependent diabetes which is both insulin resistant and hyperglycaemic. Male animals were obtained at 6 weeks of age. Blood samples were taken by tail tip snip for measurement of pre-treatment blood glucose. Animals were allocated into treated and control groups such that the mean and standard deviation of the fasting blood glucose concentrations of each group was similar.
On day 0 of the study a group of obese animals and their lean litter mates were killed for measurement of baseline biochemistry and histology. In addition one group of animals (control; n=14) were fed a standard diet and a further group received aminoguanidine (500 mg/kg; n=14) in the same diet. Animals were allowed free access to food and water and their intake measured daily. At weekly intervals 24 hr urine output was also measured. Mice (n=7) were killed at 30 days and 85 days from commencement of treatment. Blood was taken for measurement of glucose and insulin concentrations and the pancreas removed for histological analysis and for measurement of pancreatic insulin.

[1] = from day 63 compared to day 7, FIG. 1

In the case of `N=C(N)NN` [Aminoguanidine, Hydrazinecarboximidamide], the islet morphology (day 30 of treatment, histology) is reported as “normal islet morphology was preserved”, the islet insulin content (day 30 of treatment, vs untreated controls) is reported as “greater” and the urinary glucose excretion (from day 35, vs untreated, FIG. 1) is reported as “lower”. For the same compound, the “increase in urine output (polyuria)” value [1] was “prevented”, the “increase in water intake (polydipsia)” value [1] was “prevented” and the “pancreatic insulin content relative to untreated animals” value (treated vs untreated) was “twice that of the untreated animals”.
